Assay results as given in patent publication US12344610B2, “APOL1 inhibitors and methods of use” (Maze Therapeutics, Inc., priority 2022, dated 2025).

What was measured:
APOL1 G2 = target: T1, APOL1 G2 (Homo sapiens, UniProt O14791, DEL388-389); assay: APOL1-mediated calcium transport (calcium influx) assay, HEK T-REx/GCaMP6f/APOL1 G2 K6.3 cells, FLIPR TETRA; format: cell-based; conditions: prevention of calcium influx; geometric mean of at least 2 assay runs; † = average of a technical replicate from a single assay run
T1 construct: expressed in transfected cells; host or cells: HEK293 T-REx clonal line stably expressing GCaMP6f (HEK T-REx/GCaMP6f/APOL1 G2 K6.3), doxycycline induced
T1 sequence (O14791 with tags, fused parts or gaps DEL388-389): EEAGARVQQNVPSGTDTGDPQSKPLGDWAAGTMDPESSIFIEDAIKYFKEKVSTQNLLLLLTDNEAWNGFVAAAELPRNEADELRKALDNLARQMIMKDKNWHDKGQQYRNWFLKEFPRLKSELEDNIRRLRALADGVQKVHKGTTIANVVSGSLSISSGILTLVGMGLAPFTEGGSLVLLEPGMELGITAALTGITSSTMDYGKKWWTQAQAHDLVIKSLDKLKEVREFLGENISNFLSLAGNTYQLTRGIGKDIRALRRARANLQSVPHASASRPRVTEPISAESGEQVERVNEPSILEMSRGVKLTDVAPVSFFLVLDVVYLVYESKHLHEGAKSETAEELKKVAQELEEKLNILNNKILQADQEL
Procedure, shortened: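 A HEK293 T-REx clone stably expressing GCaMP6f had APOL1 G2 induced with doxycycline (20 ng/mL solution added) for 6 h. Cells were then washed into Ca2+-free Tyrode's buffer (pH 7.4) and preincubated with compounds (duplicate 8-point) for 10 min at room temperature. Ca2+ injection to 5 mM final produced FLIPR GCaMP fluorescence, giving AC50 for influx inhibition (geometric mean, ≥2 runs).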

[1] = tested on: HEK293 cells overexpressing APOL1 G2; assay: APOL1 G2 HEK293 cell rescue assay (reversal of cell death caused by overexpression of APOL1); format: cell-based; conditions: geometric mean of at least 2 assay runs, † = single assay run
Procedure, shortened: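 Each compound tested in duplicate wells on one plate per run, with values usually the geometric mean across at least two runs on different days, occasionally from one run only. Read-out: concentration giving half-maximal rescue of APOL1 G2 overexpression-induced death of HEK293 cells.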

[2] = Homo sapiens, HEK293, HEK293 overexpressing APOL1 G2

Structure (SMILES) | AC50 (APOL1 G2) | EC50 [1, 2] | EC50 ([1]; HEK293 overexpressing APOL1 G2)
CC(c1ccc(OCCN2CCC3(CC2)C(=O)Nc2ccc(Cl)cc23)cc1)S(C)(=O)=O (single isomer, unassigned) [Compound 39, 5-chloro-1′-(2-{4-[(1S) or (1R)-1-methanesulfonylethyl]phenoxy}ethyl)-1,2-dihydrospiro[indole-3,4′-piperidin]-2-one] | 745 nM | 56.7 nM | 
O=C1CCc2cc(OCCN3CCC4(CC3)C(=O)Nc3ccc(Cl)cc34)cnc2N1[C@H]1C[C@@H](CO)C1 (single isomer, unassigned) [Compound 319, 5-chloro-1′-[2-({7-oxo-8-[(cis)-3-(hydroxymethyl)cyclobutyl]-5,6,7,8-tetrahydro-1,8-naphthyridin-3-yl}oxy)ethyl]-1,2-dihydrospiro[indole-3,4′-piperidin]-2-one] | 378 nM | 41.9 nM | 
CC[C@]1(O)C[C@@H](N2C(=O)CCc3cc(OCCN4CCC5(CC4)C(=O)Nc4ccc(Cl)cc45)cnc32)C1 (single isomer, unassigned) [Compound 321, 5-chloro-1′-[2-({7-oxo-8-[(cis)-3-ethyl-3-hydroxycyclobutyl]-5,6,7,8-tetrahydro-1,8-naphthyridin-3-yl}oxy)ethyl]-1,2-dihydrospiro[indole-3,4′-piperidin]-2-one] | 621 nM | 24.1 nM | 
CC1(O)CC(CN2C(=O)CCc3cc(OCCN4CCC5(CC4)C(=O)Nc4ccc(Cl)cc45)cnc32)C1 (single isomer, unassigned) [Compound 322, 5-chloro-1′-{2-[(7-oxo-8-{[(trans) or (cis)-3-hydroxy-3-methylcyclobutyl]methyl}-5,6,7,8-tetrahydro-1,8-naphthyridin-3-yl)oxy]ethyl}-1,2-dihydrospiro[indole-3,4′-piperidin]-2-one] | 588 nM |  | 18.5 nM
C[C@]1(O)C[C@@H](n2ncc3cc(OCCN4CCC5(CC4)C(=O)Nc4ccc(Cl)cc45)cnc32)C1 (single isomer, unassigned) [Compound 357, 5-chloro-1′-[2-({1-[(cis)-3-hydroxy-3-methylcyclobutyl]-1H-pyrazolo[3,4-b]pyridin-5-yl}oxy)ethyl]-1,2-dihydrospiro[indole-3,4′-piperidin]-2-one] | 412 nM | 22.3 nM | 
CC1(O)CC(c2ncc(OCCN3CCC4(CC3)C(=O)Nc3ccc(Cl)cc34)cn2)C1 (single isomer, unassigned) [Compound 393, 5-chloro-1′-[2-({2-[(cis) or (trans)-3-hydroxy-3-methylcyclobutyl]pyrimidin-5-yl}oxy)ethyl]-1,2-dihydrospiro[indole-3,4′-piperidin]-2-one] | 1060 nM |  | 80.5 nM
C[C@]1(O)C[C@H](n2ncc3cc(OCCN4CCC5(CC4)C(=O)Nc4ccc(Cl)cc45)cnc32)C1 (single isomer, unassigned) [Compound 408, 5-chloro-1′-[2-({1-[(trans)-3-hydroxy-3-methylcyclobutyl]-1H-pyrazolo[3,4-b]pyridin-5-yl}oxy)ethyl]-1,2-dihydrospiro[indole-3,4′-piperidin]-2-one] | 283 nM | 23.1 nM | 
C[C@]1(O)C[C@@H](N2C(=O)CCc3cc(OCCN4CCC5(CC4)C(=O)Nc4ccc(OC(F)F)cc45)cnc32)C1 [Cmpd 325, 5-(difluoromethoxy)-1′-[2-({7-oxo-8-[(cis)-3-hydroxy-3-methylcyclobutyl]-5,6,7,8-tetrahydro-1,8-naphthyridin-3-yl}oxy)ethyl]-1,2-dihydrospiro[indole-3,4′-piperidin]-2-one] | 791 nM | 86.4 nM | 
CC(c1ncc(OCCN2CCC3(CC2)C(=O)Nc2ccc(Cl)cc23)cn1)S(C)(=O)=O (centres unmarked) [Compound 1, 5-Chloro-1′-(2-{[2-(1-methanesulfonylethyl)pyrimidin-5-yl]oxy}ethyl)-1,2-dihydrospiro[indole-3,4′-piperidin]-2-one] | 703 nM | 120 nM | 
CS(=O)(=O)C1(c2ncc(OCCN3CCC4(CC3)C(=O)Nc3ccc(Cl)cc34)cn2)CC1 [Compound 4, 5-chloro-1′-(2-{[2-(1-methanesulfonylcyclopropyl)pyrimidin-5-yl]oxy}ethyl)-1,2-dihydrospiro[indole-3,4′-piperidin]-2-one] | 670 nM | 71.9 nM | 
Cc1nc(-c2ccc(OCCN3CCC4(CC3)C(=O)N(C)c3ccccc34)cc2)no1 [Compound 35, 1-methyl-1′-{2-[4-(5-methyl-1,2,4-oxadiazol-3-yl)phenoxy]ethyl}-1,2-dihydrospiro[indole-3,4′-piperidin]-2-one] | 142 nM | 574 nM | 
CC(=O)N1CCCc2cc(OCCN3CCC4(CC3)C(=O)N(C)c3ccccc34)ccc21 [Compound 36, 1′-{2-[(1-acetyl-1,2,3,4-tetrahydroquinolin-6-yl)oxy]ethyl}-1-methyl-1,2-dihydrospiro[indole-3,4′-piperidin]-2-one] | 223 nM | 919 nM | 
CS(=O)(=O)c1c(F)cc(OCCN2CCC3(CC2)C(=O)Nc2ccccc23)cc1F [Compound 42, 1′-[2-(3,5-difluoro-4-methanesulfonylphenoxy)ethyl]-1,2-dihydrospiro[indole-3,4′-piperidin]-2-one] | 316 nM | 343 nM | 
O=C1Nc2ccc(Cl)cc2C12CCN(CCOc1ccc(S(=O)(=O)C3CC3)cc1)CC2 [Compound 43, 5-chloro-1′-{2-[4-(cyclopropanesulfonyl)phenoxy]ethyl}-1,2-dihydrospiro[indole-3,4′-piperidin]-2-one] | 507 nM | 33.1 nM | 
O=C1Nc2ccccc2C12CCN(CCOc1ccc(S(=O)(=O)C(F)F)cc1)CC2 [Compound 44, 1′-[2-(4-difluoromethanesulfonylphenoxy)ethyl]-1,2-dihydrospiro[indole-3,4′-piperidin]-2-one] | 352 nM | 116 nM | 
NC(=O)c1ccc(OCCN2CCC3(CC2)C(=O)Nc2ccc(Cl)cc23)cc1 [Compound 45, 4-(2-{5-chloro-2-oxo-1,2-dihydrospiro[indole-3,4′-piperidin]-1′-yl}ethoxy)benzamide] | 746 nM | 122 nM | 
NC(=O)c1ccc(OCCN2CCC3(CC2)C(=O)Nc2ccc(Cl)cc23)cc1F [Compound 46, 4-(2-{5-chloro-2-oxo-1,2-dihydrospiro[indole-3,4′-piperidin]-1′-yl}ethoxy)-2-fluorobenzamide] | 434 nM | 72.8 nM | 
Cc1cc(OCCN2CCC3(CC2)C(=O)Nc2ccc(Cl)cc23)ccc1C(N)=O [Compound 49, 4-(2-{5-chloro-2-oxo-1,2-dihydrospiro[indole-3,4′-piperidin]-1′-yl}ethoxy)-2-methylbenzamide] | 875 nM | 66.4 nM | 
CS(=O)(=O)c1ccc(OCCN2CCC3(CC2)C(=O)Nc2ccc(Cl)cc23)cc1C#N [Compound 50, 5-(2-{5-chloro-2-oxo-1,2-dihydrospiro[indole-3,4′-piperidin]-1′-yl}ethoxy)-2-methanesulfonylbenzonitrile] | 622 nM | 24.9 nM | 
CS(=O)(=O)N1CCCc2cc(OCCN3CCC4(CC3)C(=O)Nc3ccc(Cl)cc34)ccc21 [Compound 53, 5-chloro-1′-{2-[(1-methanesulfonyl-1,2,3,4-tetrahydroquinolin-6-yl)oxy]ethyl}-1,2-dihydrospiro[indole-3,4′-piperidin]-2-one] | 838 nM | 52.9 nM | 
CC(=O)N1CCCc2cc(OCCN3CCC4(CC3)C(=O)Nc3ccc(Cl)cc34)ccc21 [Compound 56, 1′-{2-[(1-acetyl-1,2,3,4-tetrahydroquinolin-6-yl)oxy]ethyl}-5-chloro-1,2-dihydrospiro[indole-3,4′-piperidin]-2-one] | 1010 nM | 105 nM | 
CC(=O)N1Cc2ccc(OCCN3CCC4(CC3)C(=O)Nc3ccc(Cl)cc34)cc2C1 [Compound 57, 1′-{2-[(2-acetyl-2,3-dihydro-1H-isoindol-5-yl)oxy]ethyl}-5-chloro-1,2-dihydrospiro[indole-3,4′-piperidin]-2-one] | 706 nM | 190 nM | 
CNC(=O)N1CCCc2cc(OCCN3CCC4(CC3)C(=O)Nc3ccc(Cl)cc34)ccc21 [Compound 60, 6-(2-{5-chloro-2-oxo-1,2-dihydrospiro[indole-3,4′-piperidin]-1′-yl}ethoxy)-N-methyl-1,2,3,4-tetrahydroquinoline-1-carboxamide] | 652 nM | 62.7 nM | 
O=C1Nc2ccc(Cl)cc2C12CCN(CCOc1ccc3nccnc3c1)CC2 [Compound 62, 5-chloro-1′-[2-(quinoxalin-6-yloxy)ethyl]-1,2-dihydrospiro[indole-3,4′-piperidin]-2-one] | 958 nM | 165 nM | 
CS(=O)(=O)c1ccc(OCCN2CCC3(CC2)C(=O)Nc2ccc(Cl)cc23)cc1F [Compound 63, 5-chloro-1′-[2-(3-fluoro-4-methanesulfonylphenoxy)ethyl]-1,2-dihydrospiro[indole-3,4′-piperidin]-2-one] | 461 nM | 51.1 nM | 
